Source: PMC8807600, “Catalytic trajectory of a dimeric nonribosomal peptide synthetase subunit with an inserted epimerase domain” (Nature Communications, 2022)

B1: PchE (dihydroaeruginoic acid synthetase, NRPS elongation module of the pyochelin pathway) (enzyme)
chain: MDLPPDSRTALRDWLTEQLADLLGEPLADVRALADDDDLLGCGLDSIRLMYLQERLRARGSTLDFAQLAQRPCLGAWLDLLACADRLSAPATVALPTAQDRDQPFELSSVQQAYWLGRGAGEVLGNVSCHAFLEFRTRDVDPQRLAAAAECVRQRHPMLRARFLDGRQQILPTPPLSCFDLQDWRTLQVDEAERDWQALRDWRAHECLAVERGQVFLLGLVRMPGGEDRLWLSLDLLAADVESLRLLLAELGVAYLAPERLAEPPALHFADYLAHRAAQRAEAAARARDYWLERLPRLPDAPALPLACAPESIRQPRTRRLAFQLSAGESRRLERLAAQHGVTLSSVFGCAFALVLARWSESAEFLLNVPLFDRHADDPRIGEVIADFTTLLLLECRMQAGVSFAEAVKSFQRNLHGAIDHAAFPALEVLREARRQGQPRSAPVVFASNLGEEGFVPAAFRDAFGDLHDMLSQTPQVWLDHQLYRVGDGILLAWDSVVGLFPEGLPETMFEAYVGLLQRLCDSAWGQPADLPLPWAQQARRALLNGQPACATARTLHRDFFLRAAEAPDADALLYRDQRVTRGELAERALRIAGGLREAGVRPGDAVEVSLPRGPQQVAAVFGVLAAGACYVPLDIDQPPARRRLIEEAAGVCLAITEEDDPQALPPRLDVQRLLRGPALAAPVPLAPQASAYVIYTSGSTGVPKGVEVSHAAAINTIDALLDLLRVNASDRLLAVSALDFDLSVFDLFGGLGAGASLVLPAQEQARDAAAWAEAIQRHAVSLWNSAPALLEMALSLPASQADYRSLRAVLLSGDWVALDLPGRLRPRCAEGCRLHVLGGATEAGIWSNLQSVDTVPPHWRSIPYGRPLPGQAYRVVDTHGRDVPDLVVGELWIGGASLARGYRNDPELSARRFVHDAQGRWYRTGDRGRYWGDGTLEFLGRVDQQVKVRGQRIELGEVEAALCAQAGVESACAAVLGGGVASLGAVLVPRLAPRAEGSMDLPAAQPFAGLAEAEAVLTREILGALLEAPLELDDGLRRRWLDWLADSAASALPSLDEALRRLGWQAAGLTAMGNALRGLLAGEQAPAALLLDPWLAPQAVAARLPDGREALARLLEALPTPAAGERLRVAVLDTRAGLWLDQGMASLLRPGLELTLFERSRVLLDAAATRLPERIVVQALDDGLLPAEHLGRYDRVISFAALHAYEASREGLALAAALLRPQGRLLLVDLLCESPLALLGAALLDDRPLRLAELPSLLADLAAAGLAPRCLWRSERIALVEALAPGLGLDAAALQAGLEQRLPQAMRPERLWCLPSLPLNGNGKVDRRRLAESMTRALGECRHEPSAEEPLEAHEQALAECWEAVLKRPVRRREASFFSLGGDSLLATRLLAGIRERFGVRLGMADFYRQPTLAGLARHLQVQTVEIEETQLEEGVL
modifications: phosphopantetheine (pPant) arms on the ArCP and PCP domains; salicyl-pPant or hydroxyphenylthiazolinyl-pPant seen in some conformations
notes: also called Strep II-tagged PchE; source: E. coli BAP1, purified (Strep-Tactin resin, Superose 6 Increase size exclusion)

Experiments:
[1] = target: PchD (Pseudomonas aeruginosa, UniProt Q9HWG3); details: 10 uM PchE, 10 uM PchD, 10 uM SrfD, 5 mM cysteine, 1 mM salicylate, 5 mM ATP, 10 mM MgCl2, 50 mM Tris pH 7.9, 25 C, 2.5 h; PchD loads salicylate onto ArCP of PchE (coupled read-out)
[2] = target: the molecule itself; test: cryo-EM structure; PchE reacted with PchD (0.5:1), salicylate, cysteine, ATP, MgCl2, then purified on Superose 6 Increase in 50 mM Tricine pH 8.0, 1 mM MgCl2; ~4 mg/mL with 1 mM cysteine and ATP; three conformations at 2.97, 3.78 and 3.47 Å

Sequence of PchD (Q9HWG3 whole entry): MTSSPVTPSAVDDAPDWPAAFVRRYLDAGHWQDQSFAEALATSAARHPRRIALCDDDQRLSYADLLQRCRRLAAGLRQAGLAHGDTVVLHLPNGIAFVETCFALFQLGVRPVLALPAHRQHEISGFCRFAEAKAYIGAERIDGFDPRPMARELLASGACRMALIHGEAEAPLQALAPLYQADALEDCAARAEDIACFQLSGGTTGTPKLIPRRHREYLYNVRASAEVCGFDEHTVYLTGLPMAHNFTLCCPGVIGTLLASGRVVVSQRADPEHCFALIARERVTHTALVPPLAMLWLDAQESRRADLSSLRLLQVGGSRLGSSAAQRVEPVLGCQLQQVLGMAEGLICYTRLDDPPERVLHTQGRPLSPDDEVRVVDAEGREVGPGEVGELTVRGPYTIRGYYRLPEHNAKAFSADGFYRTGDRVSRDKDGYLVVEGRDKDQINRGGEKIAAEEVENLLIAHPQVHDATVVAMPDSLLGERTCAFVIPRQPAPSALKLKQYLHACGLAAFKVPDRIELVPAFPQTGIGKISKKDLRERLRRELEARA

Molecule | in vitro reconstitution, HPLC and LC-MS of products [1] | stoichiometry N [2]
O=C(O)c1ccccc1O [salicylate] | PchD is responsible for loading salicylate onto the ArCP domain of PchE | –
B1 | – | 2
